For assay [1], the system named is p21 induction in HCT 116 cells. Kind of assay: p21 induction in cells (in-cell western, p21/GAPDH ratio). In kind it is cell-based. As to conditions: Homo sapiens; HCT 116 colon carcinoma cell line, 24 h compound incubation; percent activation vs internal reference WRN inhibitor; read-out: P21_EC50. The procedure: The colon carcinoma cell line HCT 116 was obtained from ATCC and cultured in growth medium consisting of Mccoy's 5A Medium (Gibco 16600108) supplemented with […] (Transgene FS201-02) and 100 units/mL penicillin-streptomycin (Gibco 15140122) and maintained at 37° C. under […]. On the day of seeding, 2,000 cells in 30 μL of culture media were plated per well to Poly-D-Lysine 384 Well Black Clear Plates (Biocoat 356663) and incubated overnight at 37° C. under 5% CO2. The following day, compounds were serially diluted in DMSO for a total of 11 test concentrations. The typical starting concentration of cpds was 10 μM with 2-fold dilutions. Next, 150 nL of diluted compound was added in duplicate to the assay plate, using an Echo 655 (Labcyte). The plate was centrifuged at 500 RPM for 1 min and then incubated at 37° C. under 5% CO2 for 24 h. After 24 h, medium was removed, and cells were fixed by adding 40 µL of 4% paraformaldehyde solution to each well and incubated for 20 min at room temperature. The plate was then washed 4 times with 100 μL per well of wash buffer (PBS with 0.1% Tween-20) using a microplate washer. Next, 30 μL of ice-cold methanol was added to each well and the plate was incubated at −20° C. for 10 min. The plate was washed 4 times with 100 μL per well of wash buffer by a microplate washer, then 30 μL per well of blocking buffer (Intercept PBS blocking buffer (LI-COR 927-70001) with 0.05% Tween-20) was added and the plate was incubated at room temperature with shaking for 2 h. Next, to each test well, 20 μL of primary antibody solution (p21 Waf1/CIP (12D1) Rabbit mAb (Cell Signaling Technologies 2947) diluted 1:1000 and GAPDH (D4C6R) Mouse mAb (Cell Signaling Technologies 97166) diluted 1:2000 in blocking buffer) was added and the plate was placed at 4° C., overnight. The following day, the plate was washed 5 times with 100 μL per well of wash buffer using a microplate washer for 5 min. 20 μL per well of secondary antibody (IRDye 680CW Goat anti-Mouse IgG (H+L) (LI-COR 926-68070) diluted 1: 2000 in Blocking Buffer and IRDye 800CW Goat anti-Rabbit IgG (H+L) (LI-COR 926-32211) diluted 1: 2000 in Blocking Buffer) was then added and the plate was stored for 2 h in the dark at room temperature with shaking. The plate was then washed 4 times with 100 μL per well of wash buffer again using a microplate washer. Finally, the p21 signal and the GAPDH signal were quantified using a LI-COR Odyssey CLx Imager machine reading at 800 nm and 700 nm, respectively. Each plate contained DMSO control (low control) and an internal reference WRN inhibitor (high control) respectively. For quantitation, the 800 nm/700 nm ratio was calculated for each well to give fold p21 induction and then percent activation for each compound well was calculated as follows (100×(ratio cpd well-ratio low control)/(ratio high control−ratio low control)). EC50 values for each compound were generated after non-linear regression curve fitting using commercially available software.

For assay [2], the target named is T1, human Werner helicase (WRN-BV08, amino acids 517-1235 with L1074F point mutation) (Homo sapiens, UniProt Q14191, L1074F).
T1 construct: [pFastBac1-WRN-(517-1235 L1074F)-TEV-8His]; 8xHis (C, cleaved yes); TEV cleavage site (ENLYFQG) (C); made in house; host or cells: Sf9 insect cells (baculovirus, pFastBac)
Kind of assay: ADP-Glo WRN helicase ATPase inhibition assay. In kind it is biochemical. The following applies: 0.15 nM WRN, 5 μM ATP, 0.1 nM DNA duplex; 15 minutes preincubation, 60 minutes at 25° C.; read-out: ADP-Glo_hWRN_IC50. An excerpt:
Bovine skin gelatin (BSG), dimethyl sulfoxide (DMSO), Pluronic F-127 and tris(2-carboxyethyl)phosphine hydrochloride solution (TCEP) were purchased from Sigma-Aldrich (St. Louis, MO) at the highest level of purity possible. Bicine buffer solution was purchased from Alfa Aesar (Tewksbury, MA) and compound NSC-617145 was purchased from Tocris (Minneapolis, MN). DNA duplex was synthesized at BGI (Shenzhen, China) and was composed of strand 1 with the sequence 5′-[…]-3′ (SEQ ID NO.: 1) and strand 2 with the sequence 5′-[…]-3′ (SEQ ID NO.: 2). DNA strands were annealed by heating to 95° C. for 5 minutes followed by slow cooling to room temperature. Compounds in 100% DMSO (0.1 μl) were spotted into a 384-well white polystyrene Optiplate-384 (Perkin Elmer; Waltham, MA) assay plate using a LabCyte Echo 550 (Agilent; Santa Clara, CA). DMSO (0.1 μl) was added to columns 12, rows A-H and column 24, rows I-P for the maximum signal control. Compound NSC-617145 (0.1 μl) was added to columns 12, rows I-P and 24, rows A-H for the minimum signal control (100% inhibition). Compounds/DMSO were preincubated for 15 minutes at 25° C. with 5 μl 2×WRN (BV08), prepared as described below, in assay buffer containing 20 mM Bicine (pH=7.5), 1 mM MgCl2, 10 mM KCl, 0.1% Pluronic F-127, 0.005% BSG, 1 mM TCEP. The reaction was initiated by the addition of 5 μl 2× substrate mixture in assay buffer and incubated for 60 minutes at 25° C. The final concentrations of the assay components were 0.15 nM WRN, 5 μM ATP, and 0.1 nM DNA duplex. The final DMSO concentration was 1% and the reference compound concentration (NSC-617145) used for the minimal signal control was 20 μM. The reaction was stopped by the addition of the ADP-Glo Kit components (Promega; Madison, WI) as directed and the relative luminescence units (RLU) were read on an Envision 2104 (Perkin Elmer; Waltham, MA). % inhibition calculation:
Where RLU=relative luminescence units, sample=signal in sample well, and MIN and MAX are the respective minimum and maximum signal controls.
Four-Parameter IC50 Fit Equation:
Where top and bottom are normally allowed to float but may be fixed at 100 or 0 respectively in a 3-parameter fit. Y is the % inhibition and X is the compound concentration.
Molecular Biology and virus production. The DNA encoding human Werner helicase (Uniprot Q14191, amino acids 517-1235 with L1074F point mutation) was generated with codon-optimization for E. coli expression and subcloned into the pFastBac vector with a TEV cleavable 8×His tag (SEQ ID NO: 5) (WRN-BV08). The baculovirus from the expression plasmid WRN-BV08 was generated from transfection and amplification following the manufacturer's instructions.
Sf9 cells grown in SF900II media were infected with 1:200 WRN-BV08 P2 virus and incubated for protein expression for 72 h at 27° C. The WRN protein was purified using the following protocol. The cell pellets were thawed and resuspended in buffer A (50 mM Tris, pH 7.5, 500 mM NaCl, 1 mM TCEP, 10% Glycerol) supplemented with 0.5% CHAPS, 1 mM PMSF, […] Leupeptin, 1 μg/ml Pepstatin, and the Pierce Universal Nuclease and cocktail tablet. Cleared lysates were loaded onto a Ni Sepharose™ excel column and washed with buffer A and bound protein was eluted with buffer A supplemented with 300 mM imidazole. The eluted protein was dialyzed against buffer A and digested by His-tagged TEV (1:5 ratio) overnight at 4° C. ZnCl2 was added into the sample at final 15 μM before loading onto a second Ni Sepharose™ excel column. Untagged WRN protein was eluted from the column with buffer A supplemented with 20 mM imidazole, dialyzed overnight into buffer B (50 mM Tris, pH 7.5, 1 mM TCEP, 10% Glycerol) supplemented with 150 mM NaCl and loaded onto a Heparin column. Proteins were eluted with a step gradient of buffer B supplemented with 150 mM, 200 mM, 300 mM and 500 mM NaCl. […]
Background: In ADP-Glo the light output rises with the ADP produced.

Each structure is given as a SMILES string.

T1 sequence (Q14191 with tags, fused parts or gaps L1074F): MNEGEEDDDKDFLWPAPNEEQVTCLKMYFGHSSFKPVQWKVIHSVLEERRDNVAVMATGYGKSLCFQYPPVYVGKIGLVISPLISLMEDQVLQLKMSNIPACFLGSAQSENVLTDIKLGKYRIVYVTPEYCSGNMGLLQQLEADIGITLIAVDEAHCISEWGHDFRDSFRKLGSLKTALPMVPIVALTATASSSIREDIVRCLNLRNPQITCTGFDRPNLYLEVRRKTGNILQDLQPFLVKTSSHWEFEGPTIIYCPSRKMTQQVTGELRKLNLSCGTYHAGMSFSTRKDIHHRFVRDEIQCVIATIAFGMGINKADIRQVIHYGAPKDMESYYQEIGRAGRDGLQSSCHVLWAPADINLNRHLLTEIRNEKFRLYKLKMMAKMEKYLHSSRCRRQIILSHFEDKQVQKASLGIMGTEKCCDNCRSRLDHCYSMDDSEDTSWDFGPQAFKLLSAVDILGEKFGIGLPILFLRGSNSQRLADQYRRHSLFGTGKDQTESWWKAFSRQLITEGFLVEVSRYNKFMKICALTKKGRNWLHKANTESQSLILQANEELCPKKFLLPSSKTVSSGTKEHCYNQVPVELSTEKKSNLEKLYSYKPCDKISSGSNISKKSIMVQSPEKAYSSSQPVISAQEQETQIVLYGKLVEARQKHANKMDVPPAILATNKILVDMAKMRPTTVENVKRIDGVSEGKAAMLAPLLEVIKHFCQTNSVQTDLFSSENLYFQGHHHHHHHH

Turning to `Cc1ncnc(C(=O)N2CCN(c3c4n(c5nn(C6CC6)nc5c3=O)[C@H](C(=O)Nc3ccc(C(F)(F)F)cc3Cl)C[C@H]4C)[C@H]3CC[C@@H]32)c1O` (relative stereo) [Compound I-27, (6R*,8R**)-N-[2-chloro-4-(trifluoromethyl)phenyl]-2-cyclopropyl-5-[(1S,6S)-5-(5-hydroxy-6-methylpyrimidine-4-carbonyl)-2,5-diazabicyclo[4.2.0]octan-2-yl]-6-methyl-4-oxo-2H,4H,6H,7H,8H-[1,2,3]triazolo[4,5-e]indolizine-8-carboxamide], in assay [1], the EC50 is no more than 0.5 µM. Moreover, in assay [2], the IC50 was no more than 0.005 µM.
Consider `Cc1ncnc(C(=O)N2CCN(c3c4n(c5nn(C6CC6)nc5c3=O)[C@@H](C(=O)Nc3ccc(C(F)(F)F)cc3Cl)C[C@@H]4C)[C@H]3CC[C@@H]32)c1O` (relative stereo) [Compound I-28, (6R*,8R**)-N-[2-chloro-4-(trifluoromethyl)phenyl]-2-cyclopropyl-5-[(1S,6S)-5-(5-hydroxy-6-methylpyrimidine-4-carbonyl)-2,5-diazabicyclo[4.2.0]octan-2-yl]-6-methyl-4-oxo-2H,4H,6H,7H,8H-[1,2,3]triazolo[4,5-e]indolizine-8-carboxamide], for which the EC50 in assay [1] is 0.5 to 2 µM. For the same compound, in assay [2], the IC50 fell in the range of 0.005 to 0.05 µM.
For `COc1cc(-n2nc3c(=O)c(N4CCN(C(=O)c5ncnc(C)c5O)[C@H]5CC[C@@H]54)c4n(c3n2)[C@@H](C(=O)NC23CC(C5CC5)(C2)C3)C[C@@H]4C)ccn1` (single isomer, unassigned) [Compound I-1], the EC50 in assay [1] is no more than 0.5 µM. Besides, the IC50 in assay [2] was 0.005 to 0.05 µM.
The corresponding values for `COc1cc(-n2nc3c(=O)c(N4CCN(C(=O)c5ncnc(C)c5O)[C@H]5CC[C@@H]54)c4n(c3n2)[C@@H](C(=O)NC23CC(C5CC5)(C2)C3)C[C@H]4C)ccn1` (single isomer, unassigned) [Compound I-2] are no more than 0.5 µM and 0.005 to 0.05 µM.
The corresponding values for `COc1cc(-n2nc3c(=O)c(N4CCN(C(=O)c5ncnc(C)c5O)[C@H]5CC[C@@H]54)c4n(c3n2)[C@H](C(=O)NC23CC(C5CC5)(C2)C3)C[C@H]4C)ccn1` (single isomer, unassigned) [Compound I-3] are 0.5 to 2 µM and 0.05 to 0.1 µM.
The corresponding values for `COc1cc(-n2nc3c(=O)c(N4CCN(C(=O)c5ncnc(C)c5O)[C@H]5CC[C@@H]54)c4n(c3n2)[C@H](C(=O)NC23CC(C5CC5)(C2)C3)C[C@@H]4C)ccn1` (single isomer, unassigned) [Compound I-4] are greater than 5 µM and 0.1 to 0.5 µM.
Take `COc1cc(-n2nc3c(=O)c(N4CCN(C(=O)c5ncnc(C)c5O)[C@H]5CC[C@@H]54)c4n(c3n2)[C@@H](C(=O)Nc2ccc(C(F)(F)F)cc2Cl)C[C@H]4C)ccn1` (single isomer, unassigned) [Compound I-5]: the EC50 in assay [1] is no more than 0.5 µM. Moreover, the IC50 in assay [2] was no more than 0.005 µM.
As to `COc1cc(-n2nc3c(=O)c(N4CCN(C(=O)c5ncnc(C)c5O)[C@H]5CC[C@@H]54)c4n(c3n2)[C@H](C(=O)Nc2ccc(C(F)(F)F)cc2F)C[C@@H]4C)ccn1` (single isomer, unassigned) [Compound I-6], the EC50 in assay [1] was no more than 0.5 µM. Further, in assay [2], the IC50 was no more than 0.005 µM.
Consider `Cc1cnc2c(n1)c(=O)c(N1CCN(C(=O)c3ncnc(C)c3O)[C@H]3CC[C@@H]31)c1n2[C@H](C(=O)Nc2ccc(C(F)(F)F)cc2Cl)C[C@@H]1C` (single isomer, unassigned) [Compound I-7], for which the EC50 in assay [1] was no more than 0.5 µM. Further, the IC50 in assay [2] is no more than 0.005 µM.
The corresponding values for `Cc1cnc2c(n1)c(=O)c(N1CCN(C(=O)c3ncnc(C)c3O)[C@H]3CC[C@@H]31)c1n2[C@@H](C(=O)Nc2ccc(C(F)(F)F)cc2Cl)C[C@H]1C` (single isomer, unassigned) [Compound I-8] are greater than 5 µM and 0.1 to 0.5 µM.
The corresponding values for `COc1cc(-n2nc3c(=O)c(N4CCN(C(=O)c5ncnc(C)c5O)[C@H]5CC[C@@H]54)c4n(c3n2)[C@H](C(=O)Nc2ccc(C(F)(F)F)cc2Cl)C[C@@H]4C)ccn1` (single isomer, unassigned) [Compound I-9] are 0.5 to 2 µM and 0.1 to 0.5 µM.
Consider `COc1cc(-n2nc3c(=O)c(N4CCN(C(=O)c5ncnc(C)c5O)[C@H]5CC[C@@H]54)c4n(c3n2)[C@H](C(=O)Nc2ccc(C(F)(F)F)cc2Cl)C[C@H]4C)ccn1` (single isomer, unassigned) [Compound I-13], for which the IC50 in assay [2] was no more than 0.005 µM.
As for `Cc1nc2c(=O)c(N3CCN(C(=O)c4ncnc(C)c4O)[C@H]4CC[C@@H]43)c3n(c2nc1C)[C@@H](C(=O)Nc1ccc2c(c1Cl)OC(F)(F)O2)C[C@H]3C` [Compound I-26, (7R,9R)—N-(4-chloro-2,2-difluoro-2H-1,3-benzodioxol-5-yl)-6-[(1S,6S)-5-(5-hydroxy-6-methylpyrimidine-4-carbonyl)-2,5-diazabicyclo[4.2.0]octan-2-yl]-2,3,7-trimethyl-5-oxo-5H,7H,8H,9H-pyrazino[2,3-e]indolizine-9-carboxamide], the EC50 in assay [1] was no more than 0.5 µM.

The record behind these values is patent US20250368646A1, “TRICYCLIC FUSED WRN INHIBITORS” (Nimbus Wadjet, Inc., priority 2024, published 2025).
